# Tests used:
# [1] = system: rat model of cocaine addiction; type: in vivo, rats
# Procedure: PDE7 inhibitors and DRD1 agonists were next tested for their effect on cocaine priming-induced relapse. Rats were trained to self-administer cocaine, as above, and were then exposed to extinction conditions. Cocaine was replaced with saline solution. […] Rats were treated with vehicle or agent and ten minutes later were administered cocaine. Lever pressing was counted for one hour following cocaine administration. […] Once again, administration of PDE7 inhibitors and dopamine D1 agonist had very different results in cocaine addicted animals.
# dopaminergic VTA neurons = assay: Whole-cell current clamp recordings from rat VTA horizontal slices; type: cell-based
# Source text: The reinforcing effects of nicotine are believed to result from its activation of dopaminergic neurons in the ventral tegmental area (VTA) (Pidoplichko V I et al., Nature 390:401-404 (1997); Liu L, et al., Nicotine persistently activates ventral tegmental area dopaminergic neurons via nicotinic acetylcholine receptors containing α4 and α6 subunits. Mol Pharmacol, 81(4):541-8 (2012)). The inventors sought to evaluate the anti-addictive potential of PDE7 inhibitors by studying their ability to modify basal and drug of abuse-induced changes in VTA dopamine activity by performing whole-cell current clamp recordings from rat VTA horizontal slices ex vivo. For this purpose nicotine was used as an example of drugs of abuse.
# Dopaminergic neurons were identified by the presence of a large hyperpolarizing current. Johnson, S. W., et al., “Opioids excite dopamine neurons by hyperpolarization of local interneurons,”J. Neurosci 12:483-488 (1992).
# An additional electrophysiology study was completed to evaluate the effect of the PDE7 inhibitor OMS182399 on VTA DA neuronal activity in the setting of cocaine, morphine or alcohol. The preparation of VTA slices was as described above in Example 8.
# Drug-induced changes in firing rate were calculated by averaging the effects after drug administration (five minutes) and normalizing to the pre-drug baseline. All the numerical data are given as mean±s.e.m. Data were compared and analyzed by utilizing two-way ANOVA for repeated measures (treatment×time), or Student's t-test for repeated measures, when appropriate. Statistical analysis was performed by means of the GraphPad Prism program. The significance level was established at P<0.05.
# The acute effect of OMS182399 was investigated on dopamine neurons of the VTA in a rat horizontal brain slice preparation containing the midbrain. Whole-cell current-clamp recordings were performed from VTA dopamine neurons.
# open field activity = assay: Open field activity model; type: in vivo, wild type C57BL/6 mice; conditions: C57BL/6 mice; SKF82958 1 mg/kg; FIG. 36
# Procedure: In order to assess the ability of PDE7 inhibitors to enhance DRD1 signaling in vivo, the effects of the PDE7 inhibitor OMS182401 and the DRD1 agonist SKF82958, alone and in combination, were evaluated in an open field activity model using wild type C57BL/6 mice.
# [2] = system: rat model of cocaine addiction
# Procedure: Cocaine hydrochloride (obtained from the National Institute on Drug Abuse, Bethesda, Md.) was dissolved in sterile physiological saline at a concentration of 0.25 mg/0.1 mL. Drug or vehicle solution was infused at a volume of 0.1 mL over 4 seconds. […] OMS182401 was given intraperitoneally.
# Male Wistar rats weighing between 180 and 200 g at the time of arrival in the lab were used. The rats were housed in groups of three in a humidity—(45-55%) and temperature-controlled (22 degrees C.) vivarium on a 12 h: 12 h reverse light/dark cycle (on, 17:00; off, 05:00) with ad libitum access to food and water. Experiments were conducted during the dark phase of the light/dark cycle. One week after arrival, rats were subjected to surgery, and a silastic catheter was implanted into the right jugular vein. The experimental stations consisted of operant conditioning chambers (Med Associate Inc.) enclosed in sound-attenuating, ventilated environmental cubicles. Cocaine was delivered by a plastic tube connected to the catheter before the beginning of the session. […] An IBM-compatible computer controlled the delivery of fluids and recording of the behavioral data.
# Cocaine self-administration training continued until a stable baseline of responding was reached (less than 10% variation for 3 consecutive days calculated for each single rat). At this point, drug testing began.
# Rats were treated with PDE7 inhibitors (0.0, 0.3, 1.0 and 3.0 mg/kg) given i.p. 12 hours and 1 hour before the beginning of the self-administration session. […] A 3-day interval was allowed between drug testing. During these intervals, cocaine self-administration was continued to re-establish baseline lever responses.
# Cocaine self-administration training continued until a stable baseline of responding was reached (less than 10% variation for 3 consecutive days calculated for each single rat). At this point, drug testing began. The animals were injected with vehicle or drug 15 minutes before the test session.
# In order to test the effect of raising cAMP levels through activation of DRD1 on cocaine self-administration, the DRD1 agonist SKF82958 was administered i.p. to rats trained to self-administer cocaine. […] SKF82958 was administered at 1.0 mg/kg. […] The long-access model was not evaluated in this case.
# Rats were surgically implanted with jugular catheters and allowed to recover for one week. Animals then underwent daily six-hour (long-access) training sessions in which each press of the active lever triggered delivery of 0.25 mg cocaine. After one week, the ratio was increased so that five lever presses were required to receive the same amount of cocaine. The animal training continued for about six weeks. […] Reinforced responses were assessed over two hour periods.
# [3] = system: rat model of cocaine addiction; conditions: in vivo
# binge eating model = assay: Stress-induced binge eating of highly palatable food (HPF); type: in vivo, female rats; conditions: topiramate 60 mg/kg i.p.
# Source text: To mimic binge eating disorder in laboratory animals, a binge eating model was developed where binge eating is elicited by yo-yo dieting and stressful exposure to Highly Palatable Food (HPF). In this model, female rats are exposed to repeated cycles of restriction and a stressful procedure characterized by exposure of animals to HPF without the possibility of accessing it. This procedure elicits a selective increase of highly palatable food intake that is overconsumed during a very short period of time. As described below, using this model, endowed with significant predictive and face validity, the effect of PDE7 inhibitors on binge eating (one of the most significant forms of food addiction) was investigated.
# Reinstatement of binge eating behavior has been obtained in experimental animals through a combination of repeated food restriction and stress. [Cifani et al, Psychopharmacology 204:113-125 (2009)]. For the present invention, stress-induced binge eating was tested as in Cifani.
# Rats were housed in individual cages and were given chow and water ad libitum for two weeks prior to the experiment. […]
# After one hour, animals were given HPF and ad libitum chow. Intake of HPF was measured after two hours.
# [4] = system: dopamine release in the nucleus accumbens; assay: In vivo microdialysis of dopamine release in the nucleus accumbens; parameters: species or system Male Wistar rats; conditions: nicotine 0.4 mg/kg sc
# Procedure: Male Wistar rats (Harlan, Italy) weighing 275-300 g were housed in groups of six per cage with standard food (Morini, Italy) and water ad libitum, for at least five days in the central animal room under constant temperature (23° C.), humidity (60%) and a 12 hour light/dark cycle (light from 8 a.m. to 8 p.m.).
# Concentric dialysis probes with a dialysing portion of 1.5 mm were prepared with AN69 (acrylonitrile sodium methallyl sulfonate copolymer) dialysis fiber (310 μm o.d. 220 μm i.d. Hospal, Dasco, Italy), according to the method of De Luca et al. (2007). Rats were anaesthetized with chloral hydrate (400 mg/kg i.p.) and placed in a stereotaxic apparatus. The scalp was incised and the skull leveled between lambda and bregma. […] Samples from each of the NAc shell and core were taken every 10 or 20 minutes (depending on the experiments) and analyzed.
# Dialysate samples (10 or 20 μl) were injected into an HPLC equipped with a reverse phase column (C8 3.5 um, Waters, Mildford, Mass., USA) and a coulometric detector (ESA, Coulochem II, Bedford, Mass.) to quantify DA. […]
# NAc shell and core dialysate DA was monitored for at least three hours. […] Dialysate DA was monitored for at least three hours after nicotine treatment.
smiles,measurement,setting,value
"Br.C=CCN1CCc2c(cc(O)c(O)c2Cl)C(c2ccccc2)C1 (racemic) [SKF82958, (±)-6-Chloro-7,8-dihydroxy-3-allyl-1-phenyl-2,3,4,5-tetrahydro-1H-3-benzazepine hydrobromide]",behavior of treated animals in cocaine priming test,"[1]; rat, in vivo",exhibited significantly abnormal behavior
same,cocaine priming-induced lever pressing,"[1]; rats, agent ten minutes before cocaine, lever pressing for one hour, FIGS. 13 and 14",significantly reduced lever pressing induced by cocaine priming
same,"nicotine-induced activation of VTA neurons, single agents at low concentration",dopaminergic VTA neurons; 30 nM OMS182401 alone or 1 uM SKF82958 alone,ineffective
same,spontaneous firing rate of dopaminergic VTA neurons,"dopaminergic VTA neurons; OMS182401, SKF82958 at 3.0 and 10.0 uM, FIG. 29A",a similar effect was observed
same,"open-field activity, single agents",open field activity,stimulated open-field activity at 1 mg/kg
same,behavior of animals given the agent with cocaine,"[2]; rat, in vivo, ip",exhibited significantly abnormal behavior and were extremely aggressive
same,"cocaine self-administration, short-access model","[2]; rats, 2-hour sessions, OMS182401 15 minutes before session (FIG. 3), SKF82958 1.0 mg/kg i.p. (FIG. 4)",significantly reduced cocaine self-administration in the short-access model
same,"cocaine self-administration, first hour after treatment","[2]; rats, short-access, i.p.",a significant reduction in self-administration was observed at both doses
same,"cocaine self-administration, two hours after treatment","[2]; rats, short-access, i.p.",the trend of self-administration reduction was non-significant
same,lever pressing when administered on its own (addictive properties),[3],Neither agent caused increased lever pressing
CCO [Ethanol],firing rate of VTA DA cells,"dopaminergic VTA neurons; Ethanol 100 mM, 5 min, n=6",158.3±26.7 % of basal firing rate
CC1(C)O[C@@H]2[C@@H](CO[C@@]3(COS(N)(=O)=O)OC(C)(C)O[C@@H]23)O1 [Topiramate],"times of observation at which HPF intake was reduced, R+S group, highest dose","binge eating model; OMS182056 3 mg/kg i.p., p<0.05",evident at all the times of observation
same,"HPF intake, restricted and stressed (R+S) group","binge eating model; rats, two hours, OMS182401 3.0 mg/kg i.p., OMS182056 1.0 and 3.0 mg/kg i.p., FIGS. 23D, 24D, 25D",reduced HPF intake only in the R+S group
COC(=O)[C@H]1[C@@H](OC(=O)c2ccccc2)C[C@@H]2CC[C@H]1N2C [cocaine],firing rate of VTA DA cells,"dopaminergic VTA neurons; cocaine 1 μM, 5 min, n=7",36.4±9.1 % of basal firing rate
CN1CC[C@]23c4c5ccc(O)c4O[C@H]2[C@@H](O)C=C[C@H]3[C@H]1C5 [morphine],firing rate of VTA DA cells,"dopaminergic VTA neurons; morphine, 3 min, n=7",224.4±19.5 % of basal firing rate
CN1CCC[C@H]1c1cccnc1 [nicotine],DA release in the NAc shell,[4],increases DA release in the NAc shell

# From patent US11464785B2, “Treatment of addiction and impulse-control disorders using PDE7 inhibitors” (priority 2010, dated 2022)
